Assay results reported in PMC11474946, “Role of DNA Double-Strand Break Formation in Gyrase Inhibitor-Mediated Killing of Nonreplicating Persistent Mycobacterium tuberculosis in Caseum” (ACS Infectious Diseases, 2024).

The compounds below were run against T1, M. tuberculosis gyrase (MTB DNA gyrase) (Mycobacterium tuberculosis, UniProt P9WG45+P9WG47) (assay: DNA supercoiling inhibition, relaxed pBR322, agarose gel). Details: not given.
T1 construct: gene gyrA
Format: biochemical

T1 sequence (P9WG47 2-838): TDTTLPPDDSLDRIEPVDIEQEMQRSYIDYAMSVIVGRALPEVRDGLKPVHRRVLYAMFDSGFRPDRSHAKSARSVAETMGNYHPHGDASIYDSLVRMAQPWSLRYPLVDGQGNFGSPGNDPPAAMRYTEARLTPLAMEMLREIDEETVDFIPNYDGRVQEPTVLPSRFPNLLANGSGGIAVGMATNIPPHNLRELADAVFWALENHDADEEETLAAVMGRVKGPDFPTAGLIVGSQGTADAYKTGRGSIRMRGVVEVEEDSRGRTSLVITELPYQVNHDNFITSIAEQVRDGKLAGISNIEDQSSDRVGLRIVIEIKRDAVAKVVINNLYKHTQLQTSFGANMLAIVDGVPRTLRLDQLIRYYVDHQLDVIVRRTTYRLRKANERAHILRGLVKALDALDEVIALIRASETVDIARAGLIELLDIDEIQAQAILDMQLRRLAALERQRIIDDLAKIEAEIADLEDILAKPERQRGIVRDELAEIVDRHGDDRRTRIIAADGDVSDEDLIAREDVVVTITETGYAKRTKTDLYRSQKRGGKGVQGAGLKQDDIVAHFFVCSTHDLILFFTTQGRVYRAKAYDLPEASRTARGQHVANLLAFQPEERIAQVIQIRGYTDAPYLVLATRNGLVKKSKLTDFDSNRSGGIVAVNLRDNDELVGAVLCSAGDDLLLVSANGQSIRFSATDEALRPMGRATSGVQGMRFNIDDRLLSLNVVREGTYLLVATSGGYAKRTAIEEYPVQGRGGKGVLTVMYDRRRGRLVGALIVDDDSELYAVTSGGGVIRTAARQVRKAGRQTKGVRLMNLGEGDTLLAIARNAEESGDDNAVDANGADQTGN
T1 sequence (P9WG45 whole entry): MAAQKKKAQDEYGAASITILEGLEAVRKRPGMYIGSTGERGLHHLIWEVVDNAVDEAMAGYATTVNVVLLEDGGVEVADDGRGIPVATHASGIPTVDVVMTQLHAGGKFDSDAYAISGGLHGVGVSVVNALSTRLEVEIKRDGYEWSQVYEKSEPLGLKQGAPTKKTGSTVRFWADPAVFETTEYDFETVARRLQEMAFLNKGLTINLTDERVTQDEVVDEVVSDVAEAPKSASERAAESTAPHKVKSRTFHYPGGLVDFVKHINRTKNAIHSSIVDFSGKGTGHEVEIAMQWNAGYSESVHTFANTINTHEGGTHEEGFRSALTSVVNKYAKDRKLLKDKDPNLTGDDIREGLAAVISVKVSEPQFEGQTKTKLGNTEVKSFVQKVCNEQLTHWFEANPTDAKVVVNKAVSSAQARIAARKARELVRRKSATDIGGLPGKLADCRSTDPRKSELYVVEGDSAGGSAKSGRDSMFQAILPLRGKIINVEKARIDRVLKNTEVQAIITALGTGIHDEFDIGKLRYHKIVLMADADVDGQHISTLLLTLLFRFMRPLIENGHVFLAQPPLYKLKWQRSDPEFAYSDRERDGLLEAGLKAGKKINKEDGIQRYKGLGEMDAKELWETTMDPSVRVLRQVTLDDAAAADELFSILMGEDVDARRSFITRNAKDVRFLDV

**Q.** For `Nc1nc(-n2cc(C(=O)O)c(=O)c3cc(F)c(N4CC(O)C4)c(Cl)c32)c(F)cc1F` [Delafloxacin], which EC50 is on record?
**A.** 23000 nM

**Q.** Which EC50 does the source give for `COc1c(N2CCNC(C)C2)c(F)cc2c(=O)c(C(=O)O)cn(C3CC3)c12` (stereo not drawn) [Gatifloxacin] here?
**A.** 5000 nM

**Q.** Which EC50 does the source give for `C[C@H]1COc2c(N3CCN(C)CC3)c(F)cc3c(=O)c(C(=O)O)cn1c23` [Levofloxacin] here?
**A.** 10000 nM

**Q.** How did the EC50 turn out when `CCNC(=O)Nc1nc2cc(-c3cnc(C(C)(C)O)nc3)c(F)c([C@H]3CCCO3)c2[nH]1` [SPR719] was run?
**A.** 300 nM

**Q.** Which EC50 does the source give for `N[C@@H]1CN(c2c(F)cc3c(=O)c(C(=O)O)cn([C@@H]4C[C@@H]4F)c3c2Cl)CC12CC2` [Sitafloxacin] here?
**A.** 1000 nM

Same assay, conditions: 37 °C, 30 min, relaxed pBR322

**Q.** How did the EC50 turn out when EC/11716 was run?
**A.** 100 nM
